Test results: patent US12358918B2, “Aryl hydrocarbon receptor (AHR) activator compounds as cancer therapeutics” (THE BROAD INSTITUTE, INC., priority 2018, dated 2025)

System: ZR75, MDA-MB-468 and HCC1395 cell lines
Test: cytotoxicity of CGS-15943 analogs in sensitive and resistant cell lines
Format: cell-based
Settings: IC50 tables of FIGS. 8A to 8D
Text: Biological replicates were averaged and normalized to vehicle control. Dose curves were generated using Graphpad Prism.

For `Nc1nc2c(cnn2CCc2ccccc2)c2nc(-c3ccco3)nn12` [BRD-K81225797-001-02-3], the “killing of sensitive (ZR75, MDA-MB-468) versus resistant (HCC1395) cell lines” value was “selective killing”.
